# From paper PMC12655819 (Pharmaceuticals, 2025)
# Marks after values point to notes of the source that are not given here.
# What was measured:
# [1] = Pharmacokinetics from total plasma levels (tMPA, tMPAG), LC-MS/MS; type: in vivo, human; conditions: total plasma level
# Method: (§1) The AUC0–4, Tmax, and Cmax parameters were calculated using the R (version 4.5.1) package software (R Core Team, 2025), supported by RStudio (version 2025.05.1+513) from Posit PBC software (Boston, MA, USA). […] The vMPA and vMPAG capillary blood levels were corrected using formulas validated in our department (partially published by Kocur et al.) and expressed as estimated capillary plasma concentrations. […] Individual PK profiles for each patient included in the study are provided in the Supplementary File (Figures S4 and S5).
# Briefly, 50 μL of plasma was diluted with 90 μL of deionized water, and 10 μL of IS (d3-MPA) was added. Next, 400 μL of the precipitation mixture (a 0.1 M aqueous zinc sulfate solution and acetonitrile, 50:50 (v/v)) was added. The sample was then shaken for 10 min at room temperature using an automatic rotary vortex (Ohaus, Parsippany, NJ, USA) and centrifuged for 10 min at 13,500× g at 4 °C thereafter. The supernatant was transferred into chromatographic vials and analyzed using LC-MS/MS. Sample processing was performed at the Department of Drug Chemistry, Pharmaceutical and Biomedical Analysis, Medical University of Warsaw, Poland.
# (§2) From each patient (if they consented to all sampling types), four samples were collected simultaneously at all defined time points of the dynamic PK profile (0, 0.5, 1, 2, and 4 h after drug administration). Whole blood was collected using standard venipuncture by a phlebotomist into a K3-EDTA test tube (Sarstedt, Nümbrecht, Germany). Plasma for analytical determination was obtained by centrifuging a portion of the whole blood and stored at −40 °C until assay. At the same time, 10 µL capillary blood samples were collected from a finger prick using the Mitra™ device (VAMS samples were stored in light-protected aluminum zip bags with desiccant at room temperature).
# [2] = Pharmacokinetics from plasma unbound levels in plasma ultrafiltrate (fMPA, fMPAG); type: in vivo, human; conditions: free level in plasma ultrafiltrate
# Method: as §1
# Next, the sample was centrifuged at 3000× g for 5 min at ambient conditions, and the supernatant was transferred into a chromatographic vial. Sample processing was performed at the Department of Drug Chemistry, Pharmaceutical and Biomedical Analysis, Medical University of Warsaw, Poland.
# as §2
# [3] = Pharmacokinetics from liquid (wet) saliva collected with Salivette (sMPA, sMPAG); type: in vivo, human
# Method: as §1
# The concentrations of sMPA and sMPAG in saliva were determined using a previously described LC-MS/MS method. Briefly, 100 µL of saliva was used for analysis. […] Samples were vortexed and evaporated to dryness. The dry residues were reconstituted in 100 μL of a mobile phase consisting of a 1:4 (v/v) mixture of methanol and water, both of which contained 0.1% formic acid. After double centrifugation, the samples were analyzed using a Shimadzu Ultra-Performance Liquid Chromatography (UPLC) system (Shimadzu Co., Kyoto, Japan) coupled with a triple quadrupole mass spectrometer (LCMS-8030; Simadzu Co., Kyoto, Japan). The method was linear over the concentration range of 2–500 μg/L for both sMPA and sMPAG. This part of the work was carried out with the support of the Centre of Innovative Pharmaceutical Technology, Poznan University of Medical Sciences (Poznan, Poland).
# (§3) Additionally, the unstimulated saliva samples were simultaneously collected using the Salivette® device (Sarstedt, Nümbrecht, Germany) and Mitra™ 20 µL microsampling tips (Neoteryx/Trajan, Torrance, CA, USA (all saliva samples simultaneously to plasma and capillary blood sampling: 0, 0.5, 1, 2, and 4 h after drug administration). Patients had not eaten for at least 30 min before saliva collection, and their mouths were rinsed with water. The study was conducted in accordance with the Declaration of Helsinki and the International Council for Harmonization Guideline for Good Clinical Practice. The protocol was approved by the Bioethics Committee of the Children’s Memorial Health Institute, Warsaw, Poland (approval No. 15/KBE/2023, with subsequent amendments). Written informed consent was obtained from all participants and their legal guardians.
# [4] = Pharmacokinetics from dried saliva collected with Mitra VAMS (vsMPA, vsMPAG); type: in vivo, human
# Method: as §1
# Samples were sonicated (36 °C, 30 min), vortexed (15 min), and frozen (−20 °C, 15 min). After centrifugation (10 min, 25,155× g), 350 µL of supernatant was transferred to a total recovery borosilicate vial (Finneran, Vineland, NJ, USA) and evaporated to dryness under a stream of nitrogen (40 °C) using Ultravap® Levante (Porvair, Hampshire, Great Britain). The residue was reconstituted in 150 µL of mobile phase A, filtered in a Verex™ vial, and 5 µL was injected into the LC–MS/MS system. Analyses were performed at the Department of Drug Chemistry, Pharmaceutical and Biomedical Analysis, Medical University of Warsaw, Poland.
# as §3
# [5] = cited from earlier work
# [6] = normalized to MMF dose, n = 20, mean (range)
structure (smiles),measurement,setting,value
"COc1c(C)c2c(c(O)c1C/C=C(\C)CCC(=O)O)C(=O)OC2 [MPA, Mycophenolic acid]",Tmax,"[1]; human, plasma, pediatric renal transplant recipients (n = 20) on MMF, mean (range), read-out: Tmax",30 to 60 min
same,concentration at 0 h,"[1]; human, 0 h (pre-dose), n = 20, mean ± SD, read-out: C0 concentration",2150 ± 1620 ng/mL
same,concentration at 0.5 h,"[1]; human, 0.5 h post-dose, n = 20, mean ± SD, read-out: C0.5 concentration",10700 ± 9560 ng/mL
same,concentration at 1 h,"[1]; human, 1 h post-dose, n = 20, mean ± SD, read-out: C1 concentration",11400 ± 6810 ng/mL
same,concentration at 2 h,"[1]; human, 2 h post-dose, n = 20, mean ± SD, read-out: C2 concentration",4680 ± 3410 ng/mL
same,concentration at 4 h,"[1]; human, 4 h post-dose, n = 20, mean ± SD, read-out: C4 concentration",2230 ± 2390 ng/mL
same,Cmax,"[1]; human, pediatric renal transplant recipients (n = 20) on MMF (CellCept), steady state, 0–4 h post-dose, mean (range), read-out: Cmax",14400 ng/mL
same,AUC(0-t),"[1]; human, pediatric renal transplant recipients (n = 20) on MMF, mean (range)",23800 ng·h/mL
same,AUC(0–4) Normalized to Drug Dose,[1]; [6],83.67 (22.44–447.22) ^d mg × h/mL × g
same,Tmax,"[1]; pediatric renal transplant recipients (n = 20) on MMF, mean (range), listed as tMPA",0.78 (0.50–1.00) h
same,AUC(0–4) Normalized to Drug Dose,[2]; [6],0.596 (0.042–1.577) ^d mg × h/mL × g
same,concentration at 0 h,"[2]; human, plasma ultrafiltrate (unbound level in EDTA plasma), 0 h (pre-dose), n = 20, mean ± SD, read-out: C0 concentration",22 ± 16 ng/mL
same,concentration at 0.5 h,"[2]; human, plasma ultrafiltrate (unbound level in EDTA plasma), 0.5 h post-dose, n = 20, mean ± SD, read-out: C0.5 concentration",104 ± 125 ng/mL
same,concentration at 1 h,"[2]; human, plasma ultrafiltrate (unbound level in EDTA plasma), 1 h post-dose, n = 20, mean ± SD, read-out: C1 concentration",149 ± 146 ng/mL
same,concentration at 2 h,"[2]; human, plasma ultrafiltrate (unbound level in EDTA plasma), 2 h post-dose, n = 20, mean ± SD, read-out: C2 concentration",49 ± 41 ng/mL
same,concentration at 4 h,"[2]; human, plasma ultrafiltrate (unbound level in EDTA plasma), 4 h post-dose, n = 20, mean ± SD, read-out: C4 concentration",31 ± 50 ng/mL
same,Cmax,"[2]; human, plasma ultrafiltrate (unbound level in EDTA plasma), pediatric renal transplant recipients (n = 20) on MMF (CellCept), steady state, 0–4 h post-dose, mean (range), read-out: Cmax",160 ng/mL
same,AUC(0-t),"[2]; human, plasma ultrafiltrate (unbound level in EDTA plasma), pediatric renal transplant recipients (n = 20) on MMF, mean (range)",276 ng·h/mL
same,Tmax,"[2]; human, plasma ultrafiltrate (unbound level in EDTA plasma), pediatric renal transplant recipients (n = 20) on MMF, mean (range), read-out: Tmax",54 min
same,concentration at 0 h,"[3]; human, unstimulated, Salivette, wet saliva, 0 h (pre-dose), n = 20, mean ± SD, read-out: C0 concentration",8.24 ± 5.66 ng/mL
same,concentration at 0.5 h,"[3]; human, unstimulated, Salivette, wet saliva, 0.5 h post-dose, n = 20, mean ± SD, read-out: C0.5 concentration",27.2 ± 7.86 ng/mL
same,concentration at 1 h,"[3]; human, unstimulated, Salivette, wet saliva, 1 h post-dose, n = 20, mean ± SD, read-out: C1 concentration",51.6 ± 45.8 ng/mL
same,concentration at 2 h,"[3]; human, unstimulated, Salivette, wet saliva, 2 h post-dose, n = 20, mean ± SD, read-out: C2 concentration",17.7 ± 16.1 ng/mL
same,concentration at 4 h,"[3]; human, unstimulated, Salivette, wet saliva, 4 h post-dose, n = 20, mean ± SD, read-out: C4 concentration",8 ± 9.49 ng/mL
same,AUC(0-t),"[3]; human, unstimulated, Salivette, wet saliva, pediatric renal transplant recipients (n = 20) on MMF, mean (range)",107 ng·h/mL
same,Tmax,"[3]; human, unstimulated, Salivette, wet saliva, pediatric renal transplant recipients (n = 20) on MMF, mean (range), read-out: Tmax",51 min
same,Cmax,"[3]; human, wet saliva (unstimulated, Salivette), pediatric renal transplant recipients (n = 20) on MMF, 0–4 h post-dose, mean (range), read-out: Cmax",83.5 ng/mL
same,AUC(0–4) Normalized to Drug Dose,"[3]; wet saliva, normalized to MMF dose, n = 20, mean (range)",300.18 (32.29–2716.80) ^c µg × h/mL × g
same,AUC(0–4) Normalized to Drug Dose,"[4]; dried saliva (Mitra VAMS), normalized to MMF dose, n = 20, mean (range)",305.78 (33.88–2937.03) ^c µg × h/mL × g
same,Cmax,"[4]; human, dried saliva (Mitra VAMS 20 µL), pediatric renal transplant recipients (n = 20) on MMF, 0–4 h post-dose, mean (range), read-out: Cmax",84.1 ng/mL
same,concentration at 0 h,"[4]; human, dried saliva (Mitra VAMS), 0 h (pre-dose), n = 20, mean ± SD, read-out: C0 concentration",7.54 ± 4.89 ng/mL
same,concentration at 0.5 h,"[4]; human, dried saliva (Mitra VAMS), 0.5 h post-dose, n = 20, mean ± SD, read-out: C0.5 concentration",27.7 ± 9.14 ng/mL
same,concentration at 1 h,"[4]; human, dried saliva (Mitra VAMS), 1 h post-dose, n = 20, mean ± SD, read-out: C1 concentration",52.2 ± 40.9 ng/mL
same,concentration at 2 h,"[4]; human, dried saliva (Mitra VAMS), 2 h post-dose, n = 20, mean ± SD, read-out: C2 concentration",17.1 ± 16.7 ng/mL
same,concentration at 4 h,"[4]; human, dried saliva (Mitra VAMS), 4 h post-dose, n = 20, mean ± SD, read-out: C4 concentration",7.25 ± 8.03 ng/mL
same,Tmax,"[4]; human, dried saliva (Mitra VAMS), pediatric renal transplant recipients (n = 20) on MMF, mean (range), read-out: Tmax",51 min
same,increase in free fraction,[5]; displacement by MPAG in severe renal impairment,7%
same,affinity for plasma proteins (binding),[5]; general statement of the introduction,97–99%
same,time of peak plasma concentration after administration,[5]; plasma,1 to 2 h
same,unbound fraction,[5]; typical range,1 to 2.5%
